Source: patent US20250180508A1, “QUANTITATIVE LIPIDOMIC ANALYSIS, METHODS AND USES THEREOF” (McMaster University, priority 2023, published 2025)
Several values for one entry are separate records, joined by “and”; a condition that tells them apart may be missing. Equal entries are not always repeated. Where two headings read alike, the source gives them in different places.

Key:
[1] = Omega-3 index (O3I) from erythrocyte PL FAMEs by GC-FID, EPA or DHA trial; assay type: in vivo, human; settings: for O3I (Post): 90-day period; for Average O3I status after supplementation: high-dose intake, after 90 days, both sexes
Source text: (§1) This study was approved by the Research Ethics Board at the University of Guelph. Participant characteristics (sex, age, BMI etc.) and blood draws for O3I assessment were obtained for all participants (n=83) on study day visits. Purified EPA (KD-PUR EPA700TG) and DHA (KD-PUR DHA700TG) oils, as well as OO, were obtained from KD Pharma (Bexbach, Germany) with EPA and DHA in their triglyceride forms. The FA content of these supplements was previously reported to be 75.7%±0.01% for oleic acid (18:1) in the OO supplement, 74.7%±0.09% EPA and 0.55%±0.01% DHA in the EPA supplement, and 72.3%±1.3% DHA and 1.05+0.11% EPA in the DHA supplement (91). All capsules contained 0.20% vol. tocopherol to prevent oxidation of polyunsaturated lipids. Exclusion criteria included use of FO supplements within the previous 3 months, >2 servings of fish/seafood or other omega-3 FA-rich products per week, prescribed medication use (except oral contraceptives), current smoking and history of cardiovascular disease. Participants were assigned via block randomization with stratification by sex to one of three treatment arms, namely OO supplement (n=27), EPA supplement (n=28) and DHA supplement (n=28). Participants were instructed to maintain regular exercise and dietary habits throughout the study. After overnight fasts, participants were subject to blood sampling at the Human Nutraceutical Research Unit at the University of Guelph before (baseline) and after (endpoint) of the 90-day intervention period. Blood was collected into EDTA-treated vacutainers was used to isolate plasma and erythrocytes. Samples were separated by centrifugation at 700×g at 4° C. for 15 min. A similar protocol was performed for FAME analysis from erythrocyte PL extracts following fractionation and saponification using GC-FID with normalization to heptadecanoic acid as internal standard (92). In this case, the O3I was calculated by taking the sum of EPA and DHA relative to the sum of 15 saturated, monosaturated and polyunsaturated FAs in fasting plasma samples.

[2] = Targeted plasma PC analysis by MSI-NACE-MS in placebo-controlled EPA or DHA (~3 g/day) trial over 90 days; assay type: in vivo, human; settings: change in plasma PC 36:5 + PC 38:6 from baseline, mean ± standard deviation
Source text: as §1, with “The FA content of these supplements was previously reported to be 75.7%±0.01% for oleic acid (18:1) in the OO supplement, 74.7%±0.09% EPA and 0.55%±0.01% DHA in the EPA supplement, and 72.3%±1.3% DHA and 1.05+0.11% EPA in the DHA supplement (91).” left out, “A similar protocol was performed for FAME analysis from erythrocyte PL extracts following fractionation and saponification using GC-FID with normalization to heptadecanoic acid as internal standard (92).” left out
(positive ion mode) or FA 14:0[D27]

[3] = in vivo
Source text: (§2) In the first discovery cohort, fasting serum samples were collected from participants in a randomized, double-blinded, placebo-controlled intervention study that investigated the effects of FO supplementation on attenuating skeletal muscle disuse atrophy following leg immobilization (84). […] Briefly, this study comprised a cohort of healthy young women with a mean age of 22 years (range: 19-31 years) and BMI of 24 kg/m^2 (range: 18-26 kg/m^2) recruited locally from the Hamilton area. All participants received either a high-dose FO (3.0 g EPA and 2.0 g DHA daily; n=9) or a placebo control based on an isoenergetic and volume equivalent sunflower oil (SO) daily (n=9). Repeat fasting serum samples were collected from participants at baseline and after 28, 42 and 56 days of the intervention. All serum samples were then stored frozen at −80° C.
(§3) Fasting serum and plasma samples were subject to a two-step chemical derivatization protocol using 9-fluorenylmethyoxycarbonyl chloride (FMOC) and 3-methyl-1-p-tolyltriazene (FMOC/MTT) as described in example 1. This reaction was introduced as a more convenient alternative to diazomethane to improve separation resolution and ionization efficiency by converting zwitter-ionic PL species that co-migrate close to the electroosmotic flow (EOF) into methylated phosphatidylcholines (PCs) and sphingomyelins (SMs) with a permanent positive charge. Briefly, in a glass sample vial, a 50 μL aliquot of serum/plasma sample was subject to a methyl-tert-butyl ether (MTBE) extraction, where 100 μL of methanol with 0.01% vol of BHT as antioxidant, and PC 16:0[D62] as internal standard were first added, and samples then mixed to induce protein precipitation. Next, 250 μL of MTBE was added and mixed prior to adding 100 μL of deionized water to induce phase separation. Samples were then centrifuged at 4000 g at 4° C. where then 200 μL of the organic layer was transferred into a new glass vial and dried down. Next, 100 μL of 0.85 mmol/L FMOC in chloroform containing PC 18:0[D70] as a second internal standard was added to dried serum/plasma extracts and mixed for 5 min at room temperature before drying down again. Next, 50 μL of MTBE containing 450 mmol/L of MTT was added to the glass vial with the lid sealed with Teflon tape. This vessel was then heated to 60° C. for 60 min.

[4] = Pooled sub-group untargeted serum lipid profiling by MSI-NACE-MS, high-dose FO supplementation vs placebo/baseline; settings: pooled serum extracts; for Fold-change (average fold-change in ion response for serum lipid following FO supplementation to baseline): high-dose FO (EPA 3 g/day + DHA 2 g/day) vs baseline, underivatized, negative ion mode; for Change in serum lipid response following FO supplementation (in words): high-dose FO vs baseline/placebo, MSI-NACE-MS positive or negative ion mode
Source text: as §2, §3

[5] = change from baseline, 3.0 g/day, in %
[6] = change in erythrocyte PL membrane derived O3I from baseline, females (F), mean ± standard deviation
[7] = change in erythrocyte PL membrane derived O3I from baseline, males (M), mean ± standard deviation
[8] = difference in O3I status from baseline, similar dose of EPA or DHA

CC/C=C\C/C=C\C/C=C\C/C=C\C/C=C\C/C=C\CCC(=O)O [DHA, docosahexaenoic acid]
Greater increase in O3I from baseline (relative efficacy) as compared to EPA ([1]; DHA vs EPA at the same dose level): 63% and 64%
O3I (Post) ([1]; Female, 3.0 g/day): 8.04 ± 1.34
O3I (Post) ([1]; Male, 3.0 g/day): 8.73 ± 0.97
ΔO3I [1, 5]: 4.90 ± 1.33
ΔO3I [1, 6]: 4.31 ± 1.26
ΔO3I [1, 7]: 5.57 ± 1.10
ΔO3I [1, 8]: 4.90±1.33%
Average O3I status after supplementation [1]: 6.49±1.17%
Δ(PC 36:5 + PC 38:6) ([2]; females (F)): 26.11 ± 16.15
Δ(PC 36:5 + PC 38:6) ([2]; males (M)): 25.80 ± 20.88
Change in serum lipid response following FO supplementation (in words) [3]: more modest increase

CCCCCCCCCCCCCCC(=O)O [FA 15:0]
Fold-change (average fold-change in ion response for serum lipid following FO supplementation to baseline) [4]: 0.85

CCCCCCCCCCCCCC(=O)O [FA 14:0]
Fold-change (average fold-change in ion response for serum lipid following FO supplementation to baseline) [4]: 0.60

CCCCCCCCCCCCCCCCCC(=O)O [FA 18:0, stearic acid]
Fold-change (average fold-change in ion response for serum lipid following FO supplementation to baseline) [4]: 0.82

docasapentaenoic acid [FA 22:5]
Fold-change (average fold-change in ion response for serum lipid following FO supplementation to baseline) [4]: 0.57
Change in serum lipid response following FO supplementation (in words) [4]: did not respond to supplementation

CCCCCCCCCCCC(=O)O [FA 12:0]
Fold-change (average fold-change in ion response for serum lipid following FO supplementation to baseline) [4]: 0.86

CCCCCCCCCCCCCCCCC(=O)O [FA 17:0]
Fold-change (average fold-change in ion response for serum lipid following FO supplementation to baseline) [4]: 0.85

PE 38:5
Fold-change (average fold-change in ion response for serum lipid following FO supplementation to baseline) [4]: 0.49
Change in serum lipid response following FO supplementation (in words) [4]: did not exhibit increases

CC/C=C\C/C=C\C/C=C\C/C=C\C/C=C\CCCC(=O)O [EPA, eicosapentaenoic acid]
O3I (Post) ([1]; Female, 3.0 g/day): 6.75 ± 1.20
O3I (Post) ([1]; Male, 3.0 g/day): 6.23 ± 1.10
ΔO3I [1, 5]: 2.99 ± 1.19
ΔO3I [1, 6]: 3.14 ± 1.25
ΔO3I [1, 7]: 2.83 ± 1.14
ΔO3I [1, 8]: 2.99 ± 1.19%
Average O3I status after supplementation [1]: 8.30±1.21%
Δ(PC 36:5 + PC 38:6) ([2]; females (F)): 33.71 ± 16.15
Δ(PC 36:5 + PC 38:6) ([2]; males (M)): 19.30 ± 14.26
Fold-change (average fold-change in ion response for serum lipid following FO supplementation to baseline) [4]: 4.16
Change in serum lipid response following FO supplementation (in words) [4]: more modest increase

CCCCCCCC/C=C\CCCCCCCC(=O)O [FA 18:1, oleic acid]
Fold-change (average fold-change in ion response for serum lipid following FO supplementation to baseline) [4]: 0.83
